Results from US20060063766A1, “Use of aryl- and heteroaryl-substituted tetrahydroisoquinolines to block reuptake of norepinephrine, dopamine, and serotonin” (priority 2004, published 2006).
Structures can show the parent of a compound that is named as a salt.

How the values were obtained:
[1] = target: T1, DAT (Homo sapiens, UniProt Q01959); experiment: biochemical; assay type: binding; details: for inhibition at 0.1 µM: read-out: % inhibition at 100 nM concentration of test compound, DAT
T1 construct: cDNAs containing the complete coding regions of each transporter were amplified by PCR from human brain libraries; expressed in transfected cells; host or cells: HEK293E
T1 sequence (Q01959 whole entry): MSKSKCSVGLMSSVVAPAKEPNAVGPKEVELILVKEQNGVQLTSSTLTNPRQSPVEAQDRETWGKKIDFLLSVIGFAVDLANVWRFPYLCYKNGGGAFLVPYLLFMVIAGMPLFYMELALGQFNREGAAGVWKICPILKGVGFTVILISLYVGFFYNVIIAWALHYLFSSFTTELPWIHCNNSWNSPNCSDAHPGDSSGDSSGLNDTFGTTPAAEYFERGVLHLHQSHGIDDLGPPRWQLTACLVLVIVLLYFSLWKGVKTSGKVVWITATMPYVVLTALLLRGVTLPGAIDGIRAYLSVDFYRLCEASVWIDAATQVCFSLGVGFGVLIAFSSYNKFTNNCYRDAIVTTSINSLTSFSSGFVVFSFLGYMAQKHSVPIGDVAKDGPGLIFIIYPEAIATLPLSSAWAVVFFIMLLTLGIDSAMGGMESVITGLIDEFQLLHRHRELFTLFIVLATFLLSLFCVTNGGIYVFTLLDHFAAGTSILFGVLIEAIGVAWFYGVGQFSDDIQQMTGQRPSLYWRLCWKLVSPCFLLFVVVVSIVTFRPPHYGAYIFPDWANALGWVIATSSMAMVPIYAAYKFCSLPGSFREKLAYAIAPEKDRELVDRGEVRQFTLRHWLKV

[2] = target: SERT (Homo sapiens, UniProt P31645); experiment: biochemical; details: for inhibition at 0.1 µM: read-out: % inhibition at 100 nM concentration of test compound, SERT
Sequence of SERT (P31645 whole entry): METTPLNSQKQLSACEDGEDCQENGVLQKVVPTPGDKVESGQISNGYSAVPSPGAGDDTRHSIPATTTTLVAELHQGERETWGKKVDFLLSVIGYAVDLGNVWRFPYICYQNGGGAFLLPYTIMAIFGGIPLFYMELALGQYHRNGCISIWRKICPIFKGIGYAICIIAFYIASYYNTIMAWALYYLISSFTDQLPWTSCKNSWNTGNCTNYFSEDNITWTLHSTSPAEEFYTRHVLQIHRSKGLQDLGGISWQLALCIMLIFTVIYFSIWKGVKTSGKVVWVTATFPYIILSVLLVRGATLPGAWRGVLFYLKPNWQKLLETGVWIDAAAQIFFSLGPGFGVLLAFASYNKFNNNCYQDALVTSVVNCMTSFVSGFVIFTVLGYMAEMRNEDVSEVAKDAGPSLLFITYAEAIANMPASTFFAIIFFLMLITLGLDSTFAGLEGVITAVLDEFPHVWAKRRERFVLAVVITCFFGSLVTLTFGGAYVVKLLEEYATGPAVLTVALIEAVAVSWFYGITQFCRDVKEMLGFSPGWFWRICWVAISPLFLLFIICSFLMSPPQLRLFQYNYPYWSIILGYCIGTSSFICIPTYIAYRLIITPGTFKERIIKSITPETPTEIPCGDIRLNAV

SMILES	melting point	also measured
CN1Cc2ccccc2C(c2ccc3[nH]ncc3c2)C1.O=C(O)/C=C/C(=O)O (stereo not shown)	83 to 88 °C	
CN1Cc2ccccc2C(c2ccc3c(cnn3Cc3cccc(C#N)c3)c2)C1.O=C(O)/C=C\C(=O)O (stereo not shown)	83 to 88 °C	
CN1Cc2ccccc2C(c2ccc3cn[nH]c3c2)C1.O=C(O)/C=C/C(=O)O (stereo not shown)	110 to 117 °C	
COc1c(O)ccc2c1CN(C)CC2c1ccc2ccccc2c1.O=C(O)/C=C\C(=O)O (stereo not shown)	85 to 90 °C	
CN1Cc2ccccc2C(c2ccc3[nH]ncc3c2)C1 (stereo not shown)	167 to 169 °C	
CN1Cc2cc(C#N)ccc2C(c2ccc3sccc3c2)C1 (stereo not shown) (as salt: fumarate)	112 to 114 °C	
COc1c(C2CN(C)Cc3ccccc32)ccc2ccsc12 (stereo not shown) (as salt: fumarate)	98 to 99 °C	
CCN1Cc2ccccc2C(c2ccc3sccc3c2OC)C1 (stereo not shown) (as salt: fumarate)	91 to 92 °C	
CN1Cc2cc(-c3ccc(N(C)C)nn3)ccc2C(c2ccc3sccc3c2)C1 (stereo not shown) (as salt: fumarate)	116 to 119 °C	
COc1c(C2CN(C)Cc3ccccc32)ccc2sccc12 (stereo not drawn) (as salt: fumarate) [82 (+)]	97 to 99 °C	
COc1c(C2CN(C)Cc3ccccc32)ccc2sccc12 (stereo not drawn) (as salt: fumarate) [Example 82 (−)]	94 to 96 °C	
CN1Cc2ccccc2C(c2ccc3sccc3c2O)C1 (stereo not drawn) (as salt: fumarate) [Example 88 (+)]	213 to 215 °C	
CN1Cc2ccccc2C(c2ccc3sccc3c2O)C1 (stereo not drawn) (as salt: fumarate) [Example 88 (−)]	214 to 216 °C	
CCN1Cc2ccccc2C(c2ccc3sccc3c2O)C1 (stereo not drawn) (as salt: fumarate) [Example 89 (+)]	158 to 159 °C	
CCN1Cc2ccccc2C(c2ccc3sccc3c2O)C1 (stereo not drawn) (as salt: fumarate) [Example 89 (−)]	155 to 157 °C	
Cc1cccc2c1CN(C)CC2c1ccc2ccccc2c1 (stereo not shown) (as salt: hydrochloride)	210 to 214 °C	
CN1Cc2ccccc2C(C2=Cc3ccccc3C2)C1 (stereo not shown) (as salt: maleate)	184 to 187 °C	
CN1Cc2cc(-c3cccnn3)ccc2C(c2cc3ccccc3s2)C1 (stereo not shown) (as salt: maleate)	99 to 102 °C	
CN1Cc2cc(N3CCOCC3)ccc2C(c2cc3ccccc3s2)C1 (stereo not shown) (as salt: maleate)	142 to 145 °C	

SMILES	melting point	also measured
CN1Cc2cc(C#N)ccc2C(c2cc3ccccc3s2)C1 (stereo not drawn) (as salt: maleate) [Example 79 (+)]	91 to 94 °C	
CN1Cc2cc(C#N)ccc2C(c2cc3ccccc3s2)C1 (stereo not drawn) (as salt: maleate) [Example 79 (−)]	80 to 84 °C	
CN1Cc2ccccc2C(c2nc3ccccc3o2)C1.O=C(O)/C=C\C(=O)O (racemic)	135 to 140 °C	
CN1Cc2ccccc2C(c2nc3ccccc3s2)C1.O=C(O)/C=C\C(=O)O (racemic)	165 to 170 °C	
COc1c(-c2cccnn2)ccc2c1CN(C)CC2c1ccc2ccccc2c1.O=C(O)/C=C/C(=O)O (racemic)	182 to 186 °C	
CN1Cc2c(cccc2N2CCOCC2)C(c2ccc3sccc3c2)C1.O=C(O)/C=C/C(=O)O (racemic)	148 to 153 °C	
CN(C)Cc1ccc2c(c1)CN(C)CC2c1ccc2sccc2c1 (racemic) (as salt: fumarate)	123 to 125 °C	
CC1c2ccccc2C(c2ccc3sccc3c2)CN1C (racemic) (as salt: fumarate)	179 to 181 °C	
COc1cccc2c1CN(C)CC2c1ccc2sccc2c1 (racemic) (as salt: fumarate)	197 to 199 °C	
CN1Cc2ccccc2C(c2ccc3c(Cl)c[nH]c3c2)C1 (racemic) (as salt: maleate)	94 to 98 °C	
CN1Cc2ccccc2C(c2ccc3c(ccn3Cc3ccccc3)c2)C1 (racemic) (as salt: maleate)	81 to 85 °C	
CN1Cc2cc(-c3ncccn3)ccc2C(c2cc3ccccc3s2)C1 (racemic) (as salt: maleate)	103 to 106 °C	
Cc1noc(C)c1-c1ccc2c(c1)CN(C)CC2c1cc2ccccc2s1 (racemic) (as salt: maleate)	92 to 95 °C	
CN1Cc2cc(N3CCCC3)ccc2C(c2cc3ccccc3s2)C1 (racemic) (as salt: maleate)	105 to 108 °C	
CN1Cc2cc(N3CCOCC3)ccc2C(c2cccc3sccc23)C1 (racemic) (as salt: maleate)	103 to 107 °C	
CN1Cc2cc(-c3cccnn3)ccc2C(c2cccc3sccc23)C1 (racemic) (as salt: maleate)	94 to 97 °C	
CN1Cc2cc(-c3cnccn3)ccc2C(c2cc3ccccc3s2)C1 (racemic) (as salt: maleate) [Example 71, (±)-4-(benzo[b]thiophen-2-yl)-2-methyl-7-(pyrazin-2-yl)-1,2,3,4-tetrahydroisoquinoline]	102 to 105 °C	
CN1Cc2cc(-c3cncnc3)ccc2C(c2cc3ccccc3s2)C1 (racemic) (as salt: maleate) [Example 73, (±)-4-(benzo[b]thiophen-2-yl)-2-methyl-7-(pyrimidin-5-yl)-1,2,3,4-tetrahydroisoquinoline]	103 to 107 °C	
Cc1noc(C)c1-c1ccc2c(c1)CN(C)CC2c1ccc2ccccc2c1 (racemic) (as salt: maleate) [Example 142, (±)-7-(3,5-dimethyl-isoxazol-4-yl)-2-methyl-4-napthalen-2-yl-1,2,3,4-tetrahydroisoquinoline, maleate salt]	88 to 90 °C	

SMILES	melting point	also measured
CN1Cc2ccccc2C(c2cccc3ccsc23)C1 (racemic) (as salt: salt)	228 to 230 °C	
Cc1noc(C)c1C1CN(C)Cc2ccccc21 (racemic) [4-(3,5-dimethyl-isoxazol-4-yl, reference compound]		Ki [1]: 128000 nM; Ki [2]: 1400 nM
Cc1csc(C2CN(C)Cc3ccccc32)c1 (racemic) [4-methyl-thiophen-2-yl, reference compound]		Ki [1]: 2250 nM; Ki [2]: 3170 nM
CN1Cc2cc(-c3cnccn3)ccc2C(c2cc3ccccc3s2)C1 (racemic) [Example 71, (±)-4-(benzo[b]thiophen-2-yl)-2-methyl-7-(pyrazin-2-yl)-1,2,3,4-tetrahydroisoquinoline]		inhibition at 0.1 µM [1]: 33%; inhibition at 0.1 µM [2]: 91%
CN1Cc2cc(-c3cncnc3)ccc2C(c2cc3ccccc3s2)C1 (racemic) [Example 73, (±)-4-(benzo[b]thiophen-2-yl)-2-methyl-7-(pyrimidin-5-yl)-1,2,3,4-tetrahydroisoquinoline]		inhibition at 0.1 µM [1]: 39%; inhibition at 0.1 µM [2]: 93%
Cc1noc(C)c1-c1ccc2c(c1)CN(C)CC2c1ccc2ccccc2c1 (racemic) [Example 142, (±)-7-(3,5-dimethyl-isoxazol-4-yl)-2-methyl-4-napthalen-2-yl-1,2,3,4-tetrahydroisoquinoline, maleate salt]		Ki [1]: 104 nM; Ki [2]: 5.2 nM
CN1Cc2ccccc2C(c2cccs2)C1 (racemic) [thiophen-2-yl, reference compound]		Ki [1]: 5990 nM; Ki [2]: 2450 nM
CN1Cc2cc(CN3CCOCC3)ccc2C(c2cc3ccccc3s2)C1 (single isomer, unassigned) (as salt: maleate)	80 to 82 °C	
COc1cccc2cc(C3CN(C)Cc4ccccc43)oc12 (single isomer, unassigned) [Example 11]		Ki [1]: > 300 nM; Ki [2]: 26.8 nM
COc1c(C2CN(C)Cc3ccccc32)ccc2sccc12 (single isomer, unassigned) [Example 82]		Ki [1]: > 1000 nM; Ki [2]: 4.3 nM
CN1Cc2cc(-c3cccnn3)ccc2C(c2ccc3sccc3c2)C1 (single isomer, unassigned; (+)) (as salt: fumarate) [Example 97, (+)-4-benzo[b]thiophen-5-yl-2-methyl-7-pyridazin-3-yl-1,2,3,4-tetrahydroisoquinoline]	122 to 124 °C	
CN1Cc2cc(-c3cccnn3)ccc2C(c2ccc3ccccc3c2)C1 (single isomer, unassigned; (+)) (as salt: maleate) [Example 137, (+)-2-methyl-4-napthalen-2-yl-7-pyridazin-3-yl-1,2,3,4-tetrahydroisoquinoline, maleate salt]	86 to 88 °C	
CCN1Cc2ccccc2C(c2ccc3cn[nH]c3c2)C1 (single isomer, unassigned; (+)) [Example 130, (+)-4-(1H-Indazol-6-yl)-2-ethyl-1,2,3,4-tetrahydroisoquinoline, maleate salt]		Ki [1]: 105 nM; Ki [2]: 22.5 nM
CN1Cc2ccccc2C(c2cc(Cl)c3[nH]ncc3c2)C1 (single isomer, unassigned; (-)) (as salt: maleate) [Example 125, (−)-4-(7-chloro-1H-indazol-5-yl)-2-methyl-1,2,3,4-tetrahydoisoquinoline, maleate salt]	104 to 110 °C	
CN1Cc2ccccc2C(c2cc(Cl)c3[nH]ncc3c2)C1 (single isomer, unassigned; (-)) [Example 125, (−)-4-(7-chloro-1H-indazol-5-yl)-2-methyl-1,2,3,4-tetrahydoisoquinoline, maleate salt]		Ki [1]: 11.5 nM; Ki [2]: 21.3 nM
Cc1cccc2c1C(c1ccc3ccccc3c1)CN(C)C2 (stereo not shown) [Example 56, 2,5-dimethyl-4-(naphthalen-2-yl)-1,2,3,4-tetrahydroisoquinoline]		Ki [2]: 3.4 nM
CN1Cc2ccccc2C(c2ccc3sncc3c2)C1.O=C(O)/C=C\C(=O)O (stereo not drawn) [Example 135 (−)-enantiomer]	127 to 129 °C	
CN1Cc2cc(-c3ncccn3)ccc2C(c2ccc3ccccc3c2)C1.O=C(O)/C=C\C(=O)O (stereo not drawn) [Example 140 (−)-enantiomer]	86 to 88 °C	
CN1Cc2cc(-c3ncccn3)ccc2C(c2ccc3ccccc3c2)C1.O=C(O)/C=C\C(=O)O (stereo not shown) [Example 140]	84 to 85 °C	
